Assays:
[1] = tested on: HepG2 cells; assay: MIF-GN3-mediated endocytosis of Alexa 488-labeled human MIF by HepG2 cells; conditions: FIG. 131
Experimental: Human MIF protein was fluorescently labeled with Alexa 488 NHS ester, then incubated with HepG2 cells in the presence of varying levels of MIF-GN3.
The ability of MIF-GN3 to mediate MIF endocytosis over a wide range of target protein concentrations was assessed.
Next, inhibitors of various endocytic pathways were utilized to determine if MIF-GN3 mediates MIF endocytosis in a manner consistent with ASGPR (FIG. 132).

[2] = tested on: PC3 cells; assay: PC3 human prostate cancer cell tumor model in mice; format: in vivo; conditions: for tumor growth: FIG. 138
Experimental: The ability of MIF-GN3 to mediate the depletion of MIF in a therapeutically relevant disease model was investigated. […] An experiment was conducted to determine whether the bifunctional molecule MIF-GN3 can deplete sufficient human MIF from serum to slow PC3 tumor growth. Mice were injected with an aliquot of PC3 cells, and the size of the resultant tumors as well as the levels of human MIF in serum were monitored over five weeks. […] Five weeks after the initial PC3 cell injection, the first of the mice reached maximal tumor size ([…]) and was sacrificed (FIG. 138). […] The decrease in human MIF levels mediated by MIF-GN3 is consistent with a mechanism of action in which MIF-GN3 mediates the depletion and degradation of circulating MIF protein. While the α-MIF antibody would not necessarily be expected to decrease the levels of human MIF, it is possible that the antibody mediates MIF neutralization in a manner which masks its signal as determined by ELISA. Alternatively, the α-MIF antibody may mediate depletion or degradation of huMIF by some endocytic mechanism. Another possible explanation is that the α-MIF antibody decrease serum levels of active human MIF to such an extent at early time points that PC3 cells proliferate much more slowly, and therefore fewer cells are actively secreting human MIF.
Mice were sacrificed when their tumor volumes reached 1000 mm^3. […] At this same time point, less than 25% of the mice in any other arm had survived.

[3] = target: T1, human MIF (Homo sapiens, UniProt P14174); assay: Depletion of injected recombinant human MIF from serum in mice; format: in vivo; set-up: injected into mice; conditions: for depletion of human MIF protein from serum: 30 minutes, FIG. 135
T1 sequence (P14174 2-115 limits assumed): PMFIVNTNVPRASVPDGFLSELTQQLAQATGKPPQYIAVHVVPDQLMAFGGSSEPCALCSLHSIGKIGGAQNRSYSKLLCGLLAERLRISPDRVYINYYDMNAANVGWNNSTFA
Experimental: In vivo human MIF depletion experiments were undertaken to determine whether MIF-GN3 can mediate the depletion of injected recombinant human MIF from serum in mice. Mice were injected with five μg of the human MIF protein. In this experiment, one group of mice was also injected with a single 10 mpk dose of MLF-GN3 along with human MIF protein. It was observed that after four hours, the average level of human MIF in serum in the PBS-treated mice was 1.76 ng/mL (FIG. 134). In mice treated with 10 mpk MIF-GN3, however, the concentration of human MIF in serum was 0.68 ng/mL. One day after the initial injection, human MIF levels had reached background levels for both conditions. […] It was hypothesized that, due to the short half-life of human MIF in serum, investigating human MIF levels at earlier time points may be more informative.
Next, an experiment was performed to determine whether MIF-GN3 could enhance MIF clearance at time points earlier than four hours. Mice were coinjected with recombinant human MIF and 10 mpk MIF-GN3 via either i.p. or i.v. routes. For the PBS control arms, human MIF was injected with PBS. It was observed that in the absence of MIF-GN3, there was a spike in huMIF levels in circulation after 30 minutes (FIG. 135). In the presence of MIF-GN3, however, levels of MIF protein remained low at 30 minutes and no spike in its concentration was observed. By two hours, the levels of human MIF in circulation decreased to background levels.
In a further experiment, whether an inhibitor of the MIF protein (3w) is able to mediate the protein's depletion from serum was determined. A bifunctional molecule that mediates the depletion of α-DNP antibody from serum was also assayed as a negative control. Neither of these molecules was expected to mediate the formation of a ternary complex between human MIF protein and ASGPR.

[4] = target: T2, mouse MIF (Mus musculus, UniProt P34884); assay: Depletion of endogenous mouse MIF in vivo; set-up: species or system mice; conditions: single dose of 10 mpk; FIG. 137
T2 construct: mediate the depletion of endogenous mouse MIF in vivo; from tissue; host or cells: mouse serum, in vivo
Experimental: In order to confirm that mice injected with one or ten mpk MIF-GN3 had received the injection, and that the observed stability of MIF concentrations in MIF-GN3 treated mice was not the result of injection error, 200 μg of α-DNP antibody was coinjected with the MIF protein in this experiment. […] An investigation of the ability of MIF-GN3 to mediate the depletion of endogenous mouse MIF in vivo was next undertaken. Mice were treated with either PBS or 10 mpk of MIF-GN3. […] One possible explanation for this finding is that MIF protein may be synthesized rapidly, and any increase in degradation mediated by MIF-GN3 may not be of a large enough magnitude to impact the protein's level in serum.

[5] = tested on: HepG2 cells; assay: Colocalization of endocytosed MIF protein in HepG2 cells; format: cell-based, human; conditions: MIF 100 nM, MIF-GN3 200 nM; FIG. 133
Experimental: FIG. 133 illustrates that cells treated with MIF-GN3 and exogenous MIF accumulate MIF punctate in cells. […] MIF was present at a concentration of 100 nM, and MIF-GN3 was present at a concentration of 200 nM.
In order to investigate the subcellular localization of endocytosed MIF protein, colocalization studies were performed in HepG2 cells. After 12 hours of MIF-GN mediated endocytosis, several punctae displaying MIF-derived fluorescence were present in each cell.

[6] = tested on: HepG2 cells; assay: DNP-GN3-mediated endocytosis of fluorescently labeled α-DNP antibody by adherent HepG2 cells; format: cell-based, human; conditions: six and twelve hours; FIG. 87A-87B
[7] = MIF-GN3 at 10 mpk, control arms DNP-GN3 and 3w

Compound	fluorescence of cells relative to cells not treated with bifunctional molecule ([1]; MIF protein 10 nM, 200 nM MIF-GN3) [fold]	MIF uptake at high concentration compared to lower concentrations ([1]; MIF protein 100 nM, MIF-GN3 5.00 μM)	levels of human MIF protein in the serum ([2]; MIF-GN3 1 mpk, α-MIF antibody arm, FIG. 139)	tumor growth [2, 7]	tumor growth ([2]; MIF-GN3 at a dose of 1 mpk, α-MIF antibody arm)	survival ([2]; eight weeks after the initial PC3 cell injection, MIF-GN3 1 mpk, FIG. 140) [%]	depletion of human MIF protein from serum ([3]; 10 mpk coinjected i.p.)	depletion of human MIF protein from serum ([3]; 10 mpk coinjected i.v.)	human MIF levels in serum compared to the PBS control ([3]; one mpk, 40 and 60 minute time points, FIG. 136)	concentration of human MIF in serum ([3]; single 10 mpk dose with five μg human MIF, after four hours, PBS-treated 1.76 ng/mL, difference not significant, FIG. 134) [ng/mL]	human MIF levels in serum compared to the PBS control ([3]; ten mpk, 40 and 60 minutes, FIG. 136)	mouse MIF concentrations in serum [4]	colocalization of MIF signal with LAMP2 [5]	intracellular fluorescence of adherent HepG2 cells [6]	human MIF concentration in serum compared to the PBS control ([3]; control molecules injected along with human MIF, FIG. 136)
CC(=O)N[C@H]1[C@H](OCCOCCOCCNC(=O)CCOCC(COCCC(=O)NCCOCCOCCO[C@@H]2O[C@H](CO)[C@H](O)[C@H](O)[C@H]2NC(C)=O)(COCCC(=O)NCCOCCOCCO[C@@H]2O[C@H](CO)[C@H](O)[C@H](O)[C@H]2NC(C)=O)NC(=O)CNC(=O)CCCOc2ccc3nc(-c4cn(-c5ccc(O)c(F)c5)nn4)ccc3c2)O[C@H](CO)[C@H](O)[C@@H]1O [MIF-GN3]	4	slight decrease in MIF uptake	decreased levels	not found to decrease tumor growth	delay in tumor growth	80	significant depletion	significant depletion	significant decrease	0.68	significant decreases	No significant decrease	strong colocalization		
CC(=O)NC1C(OCCOCCOCCNC(=O)CCOCC(COCCC(=O)NCCOCCOCCOC2OC(CO)C(O)C(O)C2NC(C)=O)(COCCC(=O)NCCOCCOCCOC2OC(CO)C(O)C(O)C2NC(C)=O)NC(=O)CNC(=O)COCCOCCOCCNc2ccc([N+](=O)[O-])cc2[N+](=O)[O-])OC(CO)C(O)C1O (stereo not shown) [DNP-GN3]				not found to decrease tumor growth										dependent on the concentration of both DNP-GN3 and α-DNP antibody	no significant decreases

— US20250269043A1, “TARGETED BIFUNCTIONAL DEGRADERS” (YALE UNIVERSITY, priority 2019, published 2025)
